# How the values were obtained:
# [1] = system: Cryptococcus neoformans ATCC 90113; test: Antimicrobial microdilution assay against Cryptococcus neoformans (modified CLSI/NCCLS, optical density); assay type: cell-based; conditions: for X more potent than Amphotericin B: C. neoformans, ratio of molar IC50 to Amphotericin B; for C. neoformans IC50 / IC50: in vitro, C. neoformans ATCC 90113; for IC50: read-out: C. neoformans IC50 (mol/L)
# How it was run: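 Fungicidal endpoint taken by subculturing 5 μL from each clear well onto agar, MFC being the lowest concentration with no regrowth. Duplicate wells of serially diluted compound (20% DMSO/saline) in RPMI pH 6.0, read at 630 nm pre- and post-incubation, under modified CLSI methods. IC50 means 50% growth inhibition against controls.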
# [2] = system: C. glabrata ATCC 90030; test: Antifungal broth dilution assay against C. glabrata (modified CLSI); assay type: cell-based, Candida glabrata; conditions: for C. glabrata IC50 / IC50: in vitro; for IC50: converted with molecular weight; for X more potent than Amphotericin B: molar IC50 ratio versus amphotericin B
# Description: General Experimental Procedures. All organisms were obtained from the American Type Culture Collection (Manassas, VA) and include the fungi Candida albicans ATCC 90028, C. glabrata ATCC 90030, C. krusei ATCC 6258, and Cryptococcus neoformans ATCC 90113, and the bacteria Staphylococcus aureus ATCC 29213 and methicillin-resistant S. aureus ATCC 33591 (MRS). All organisms were tested using modified versions of the CLSI (formerly NCCLS) methods. For all organisms, optical density was used to monitor growth (NCCLS, Reference Method for Broth Dilution Antifungal Susceptibility Testing of Yeasts; Approved Standard M27-A2. National Committee on Clinical Laboratory Standards, 2002 22 (15); and NCCLS, Methods for Dilution Antimicrobial Susceptibility Tests for Bacteria that Grow Aerobically; Approved Standard, Seventh Edition M7-A7. National Committee on Clinical Laboratory Standards, 2006. 26(2)).
# Samples (dissolved in DMSO) were serially-diluted in 20% DMSO/saline and transferred (10 μL) in duplicate to 96 well flat bottom microplates. Inocula were prepared by correcting the OD630 of microbe suspensions in incubation broth [RPMI 1640/0.2% dextrose/0.03% glutamine/MOPS @ pH 6.0 (Cellgro) for Candida spp., Sabouraud Dextrose for C. neoformans, and cation-adjusted Mueller-Hinton (Difco) @ pH 7.3 for Staphylococcus spp. to afford an assay volume of […] and final target inocula of: Candida spp. and C. neoformans: 1.5×10^3, and Staphylococcus spp.: 5.0×10^5 CFU/ml. Final sample test concentrations were 1/100th the DMSO stock concentration. […] All organisms were read at either 530 nm using the Biotek Powerwave XS plate reader (Bio-Tek Instruments, Vermont) prior to and after incubation: Candida spp. at 35° C. for 46-50 h, Staphylococcus spp. at 35° C. for 16-20 h, and C. neoformans at 35° C. for 70-74 h. IC50s (concentrations that afford 50% inhibition relative to controls) were calculated using XLfit 4.2 software (IDBS, Alameda, CA) using fit model 201. The MIC is defined as the lowest test concentration that allows no detectable growth. Minimum fungicidal or bactericidal concentrations were determined by removing 5 μl from each clear (or blue) well, transferring to fresh media, and incubating as previously mentioned. The MFC/MBC is defined as the lowest test concentration that kills the organism (allows no growth).
# Primary Analysis. Samples were tested in duplicate at one test concentration (50 μg/mL), and percent inhibitions were calculated relative to blank and growth controls. Samples showing 50% inhibition in at least one test organism were selected for dose response (Secondary) studies.
# Secondary Analysis. Extracts from the Primary Assay, and first-run pure compounds and column fractions were tested in duplicate at 3 test concentrations (5-fold dilutions). Samples dissolved to 20 mg/mL in DMSO were tested at 200, 40, and 8 μg/mL. Samples dissolved to 2 mg/mL in DMSO were tested at 20, 4, and 0.8 μg/mL.
Molecule,X more potent than Amphotericin B [1],C. neoformans IC50 [1] [µg/mL],IC50 [1] [µM],C. glabrata IC50 [2] [µg/mL],IC50 [2] [µM],X more potent than Amphotericin B [2]
"CC(=O)[O-].F[P-](F)(F)(F)(F)F.O.[Co+2].c1ccc(CN2CCCNCCN(Cc3ccccc3)CCCNCC2)cc1 [BME07, [Co(Bn2Cyclam)(OAc)PF6•H2O]",0.02,6.980,10.6,0.597,0.903,1.57
"CC(=O)[O-].CC(=O)[O-].CC(=O)[O-].CN1CCCN2CCN(CCCN(Cc3cc(CN4CCCN5CCN(C)CCCN(CC5)CC4)cc(CN4CCCN5CCN(C)CCCN(CC5)CC4)c3)CC2)CC1.F[P-](F)(F)(F)(F)F.F[P-](F)(F)(F)(F)F.F[P-](F)(F)(F)(F)F.[Cu+2].[Cu+2].[Cu+2] [BNS25, [Cu3(tris-CB-Cyclams)(OAc)3][PF6]3]",0.20,1.950,1.19,5.420,3.31,0.43
"C1CNCCN2CCCNCCN(C1)CCC2 [DJD27, H2PBCyclam]",0.03,1.830,7.61,3.380,14.1,0.10
CC(=O)[O-].Clc1cc(CN2CCCN3CCN(CCCNCC2)CC3)cc(Cl)n1.F[P-](F)(F)(F)(F)F.[Co+2] [KLC002A],,,,16.070,24.8,0.06
"CN1CCN2CCN(CC1)CCN(Cc1ccccn1)CC2 [KRW32, Me1Pic1-CB-cyclen]",0.01,5.490,18.1,14.360,47.3,0.03
"CC(=O)[O-].CC(=O)[O-].F[P-](F)(F)(F)(F)F.F[P-](F)(F)(F)(F)F.O.O.[Co+2].[Co+2].c1cc(CN2CCNCCN3CCN(CC3)CC2)cc(CN2CCNCCN3CCN(CC3)CC2)c1 [OB36, [Co2(m-SB-Cyclens)(OAc)2][PF6]2•2H2O]",0.32,≤ 0.800,0.754,3.720,3.51,0.40
c1ccc(CN2CCN3CCN(CC2)CCN(Cc2ccccn2)CC3)nc1 [PW95],,,,14.850,39,0.04
"C1CNCCN2CCCNCCN(C1)CCC2.CC(=O)[O-].F[P-](F)(F)(F)(F)F.F[P-](F)(F)(F)(F)F.O.[Co+2].[NH4+] [SLK38B, [Co(H2PBCyclam)(OAc)]PF6•NH4PF6•H2O]",0.03,6.230,9.1,0.375,0.548,2.59
[Co2(m-SB-cyclam-cyclen)(OAc)2][PF6]4•H2O [CMB032],0.41,≤ 0.800,0.588,1.310,0.963,1.47
[Co3(tris-CB-Cyclams)(OAc)1.51][PF6]4.5 [BNS24],0.52,≤ 0.800,0.456,1.490,0.85,1.67
